Measured values as given in BigSolDB 2.1.

O=[N+]([O-])c1ccc(Oc2ccc([N+](=O)[O-])cc2)cc1
solubility (mole fraction)
Details	283.15 K	288.15 K	293.15 K	298.15 K	303.15 K	308.15 K	313.15 K	318.15 K	323.15 K
in 1,4-dioxane	0.026	0.0325	0.0409	0.0489	0.0575	0.0674	0.08	0.0922	0.11
in 1-methoxy-2-propanol	0.00539	0.00657	0.0071	0.00864	0.00979	0.0114	0.0137	0.0162	0.0198
in 2-methoxyethanol	0.00657	0.00753	0.00823	0.0103	0.0116	0.0131	0.0158	0.0182	0.022
in DMAc	0.0802	0.0866	0.0913	0.103	0.115	0.126	0.144	0.164	0.184
in DMF	0.0524	0.0612	0.0663	0.077	0.0883	0.0933	0.111	0.126	0.152
in acetic acid	0.00292	0.00347	0.00366	0.00469	0.00525	0.00612	0.0072	0.00835	0.0103
in acetone	0.0155	0.0173	0.0197	0.0246	0.0281	0.0333	0.0401	0.0484	0.0571
in acetonitrile	0.00446	0.00587	0.00682	0.00926	0.0104	0.0129	0.0158	0.0195	0.0241
in anisole	0.0243	0.0293	0.0339	0.0395	0.0444	0.0547	0.0647	0.0746	0.0893
in ethanol	0.00035	0.000369	0.000418	0.000531	0.000631	0.000807	0.00102	0.00124	0.0015
in ethyl acetate	0.0133	0.015	0.0172	0.0206	0.0228	0.0266	0.0316	0.036	0.0422
in isopropanol	0.000139	0.000199	0.000222	0.000322	0.000394	0.000538	0.000779	0.000996	0.00136
in methanol	0.000259	0.000329	0.000376	0.000525	0.000637	0.000804	0.00095	0.00115	0.00145
in n-butanol	0.000203	0.000337	0.00049	0.000661	0.000826	0.00111	0.00144	0.00183	0.00241
